Consider 25 molecules from patent US12011444B2, “N-substituted indole derivatives as PGE2 receptor modulators” (Idorsia Pharmaceuticals Ltd, priority 2015, dated 2024).

The target of one assay is PTGER2 (EP2) (Homo sapiens (Human), UniProt P43116). The assay is described as follows: hEP2 b-arrestin assay (PathHunter HEK 293 PTGER2 b-arrestin cells). The assay is classed as cell-based. The source says: (§1) The assay is using the PathHunter™ HEK 293 PTGER2 and PTGER4 b-arrestin cell lines from DiscoverX. The system is based on the Enzyme Fragment Complementation Technology. Two complementing fragments of the b-galactosidase enzyme are expressed within stably transfected cells. The larger portion of b-gal, termed EA for Enzyme Acceptor, is fused to the C-terminus of b-arrestin 2. The smaller fragment, termed ProLink™ tag, is fused to PTGER2 (EP2) or PTRGER4 (EP4) at the C-terminus. Upon activation, b-arrestin is recruited which forces the interaction of ProLink and EA, allowing complementation of the two fragments of b-gal and the formation of a functional enzyme which is capable of hydrolysing the substrate and generating a chemiluminescent signal.
(§2) 5000 cells per well of a 384 well plate (white with white bottom Greiner 781080) are seeded in 20 ul per well of GM. Plate is incubated at 37° C., 5% C02 for 24 hours.
Plate is pre-incubated 15 minutes at 37° C. Then five microliters of PGE2 (final conc. 5 μM) are transferred into the assay plate. Plate is incubated 120 minutes at 37° C.
Twelve μl of reagent are transferred to the assay plate and incubate for 1 hour at room temperature in the dark. Luminescence counts are read on a BMG Fluostar Optima reader according to manufacturer's instructions. For each compound concentration calculate of the percentage of activity compared to DMSO control value as average±STDEV. (each concentration is measured in duplicate)

Another assay concerns the target PTRGER4 (EP4) (Homo sapiens (Human), UniProt P35408). As to the kind of experiment: hEP4 b-arrestin assay (PathHunter HEK 293 PTGER4 b-arrestin cells). The format is cell-based.
Description: as §1, §2
Plate is pre-incubated 15 minutes at 37° C. Then five microliters of PGE2 (final conc. 20 nM) are transferred into the assay plate. Plate is incubated 120 minutes at 37° C.
Twelve μl of reagent are transferred to the assay plate and incubate for 1 hour at room temperature in the dark. Luminescence counts are read on a BMG Fluostar Optima reader according to manufacturer's instructions. For each compound concentration calculate of the percentage of activity compared to DMSO control value as average±STDEV.

Setting [1] is: antagonistic activity on hEP2, mean where measured multiple times.
The mark [2] stands for this setting: antagonistic activity on hEP4, mean where measured multiple times.
Where [3] appears, read: hEP2 b-arrestin assay (values without asterisk).
Where [4] appears, read: hEP4 b-arrestin assay (values without asterisk).

Chain of PTRGER4 (EP4) (P35408 whole entry, looked up): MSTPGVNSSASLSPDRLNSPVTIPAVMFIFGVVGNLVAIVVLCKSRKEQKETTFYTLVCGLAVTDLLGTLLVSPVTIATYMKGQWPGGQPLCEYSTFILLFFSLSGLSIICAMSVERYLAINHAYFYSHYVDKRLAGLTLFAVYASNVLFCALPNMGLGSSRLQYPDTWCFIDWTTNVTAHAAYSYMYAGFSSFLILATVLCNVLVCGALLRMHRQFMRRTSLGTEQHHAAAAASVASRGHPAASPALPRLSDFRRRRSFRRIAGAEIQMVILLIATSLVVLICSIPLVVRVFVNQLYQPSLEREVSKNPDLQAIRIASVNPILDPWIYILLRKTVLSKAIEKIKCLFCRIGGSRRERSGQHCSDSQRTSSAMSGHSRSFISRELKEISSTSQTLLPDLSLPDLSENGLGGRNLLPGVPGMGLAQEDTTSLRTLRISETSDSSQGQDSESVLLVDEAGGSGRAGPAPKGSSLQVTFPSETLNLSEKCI
Chain of PTGER2 (EP2) (P43116 whole entry, the tested form may be a part): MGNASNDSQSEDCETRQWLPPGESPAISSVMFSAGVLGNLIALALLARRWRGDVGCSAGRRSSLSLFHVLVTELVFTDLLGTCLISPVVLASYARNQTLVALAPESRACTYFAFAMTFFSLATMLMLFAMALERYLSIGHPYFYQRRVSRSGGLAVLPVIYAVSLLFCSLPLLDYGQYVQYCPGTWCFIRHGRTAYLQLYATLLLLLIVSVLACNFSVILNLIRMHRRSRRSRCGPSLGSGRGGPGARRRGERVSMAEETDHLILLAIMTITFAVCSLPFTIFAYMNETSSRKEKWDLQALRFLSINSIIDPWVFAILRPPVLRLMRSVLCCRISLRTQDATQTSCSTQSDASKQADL

On to `CCC(C)c1cc(-c2cc(NCCn3c(C)cc4c(C)ccc(F)c43)ncn2)ccc1C(=O)O` (racemic) [compound 337], for which the figures for the concentration for half-maximal inhibition (IC50) against PTGER2 (EP2) (setting [1]) and against PTRGER4 (EP4) (setting [2]) were 89 nM and 308 nM, respectively.

On to `COc1ccc(F)c2c1cc(C)n2CCNc1cc(-c2ccc(N)cc2)ncn1` [Example 4, [6-(4-amino-phenyl)-pyrimidin-4-yl]-[2-(7-fluoro-4-methoxy-2-methyl-indol-1-yl)-ethyl]-amine], for which the figures for the IC50 against PTGER2 (EP2) (setting [1]) and against PTRGER4 (EP4) (setting [2]) were 22 nM and 412 nM, respectively.

For `CCOc1cc(-c2cc(NCCn3c(C)cc4c(C)ccc(F)c43)ncn2)ccc1C(=O)O` [Example 158, 2-ethoxy-4-{6-[2-(7-fluoro-2,4-dimethyl-indol-1-yl)-ethylamino]-pyrimidin-4-yl}-benzoic acid], the IC50 (usually the concentration needed to halve the response being measured) against PTGER2 (EP2) (setting [1]) amounted to 39 nM; against PTRGER4 (EP4) (setting [2]), 163 nM.

As to `CCOc1cc(-c2cc(NCCn3c(C)cc4c(OC)ccc(F)c43)ncn2)sc1C(=O)O` [Example 258, 3-Ethoxy-5-{6-[2-(7-fluoro-4-methoxy-2-methyl-indol-1-yl)-ethylamino]-pyrimidin-4-yl}-thiophene-2-carboxylic acid], the IC50 amounted to 1 nM against PTGER2 (EP2) (setting [1]) and 10 nM at PTRGER4 (EP4) (setting [2]).

For `CCOc1cc(-c2cc(NCCn3c(C)cc4c(OC)ccc(F)c43)ncn2)ccc1C(=O)O` [Example 326, 2-ethoxy-4-{6-[2-(7-fluoro-4-methoxy-2-methyl-indol-1-yl)-ethylamino]-pyrimidin-4-yl}-benzoic acid], the IC50 against PTGER2 (EP2) (setting [1]) was found to be 18 nM; at PTRGER4 (EP4) (setting [2]), 224 nM.

Regarding `COc1ccc(F)c2c1cc(C)n2CCNc1cc(-c2ccc(-c3csc(O)n3)cc2)ncn1` [Example 798, 4-(4-{6-[2-(7-Fluoro-4-methoxy-2-methyl-indol-1-yl)-ethylamino]-pyrimidin-4-yl}-phenyl)-thiazol-2-ol], the concentration for half-maximal inhibition (IC50) on PTGER2 (EP2) (setting [3]) was 28 nM; at PTRGER4 (EP4) (setting [4]), 123 nM.

Regarding `COc1ccc(F)c2c1cc(C)n2CCNc1cc(-c2cc(O)c(C(=O)O)s2)ncn1` [Example 799, 5-{6-[2-(7-Fluoro-4-methoxy-2-methyl-indol-1-yl)-ethylamino]-pyrimidin-4-yl}-3-hydroxy-thiophene-2-carboxylic acid], the IC50 against PTGER2 (EP2) (setting [3]) was 21 nM; against PTRGER4 (EP4) (setting [4]), 59 nM.

`COc1cc(F)cc2c1cc(C)n2CCNc1cc(-c2cc(O)c(C(=O)O)s2)ncn1` [Example 800, 5-{6-[2-(6-Fluoro-4-methoxy-2-methyl-indol-1-yl)-ethylamino]-pyrimidin-4-yl}-3-hydroxy-thiophene-2-carboxylic acid]: the IC50 against PTGER2 (EP2) (setting [3]) is 12 nM; on PTRGER4 (EP4) (setting [4]), 44 nM.

`COc1ccc(F)c2c1cc(C#N)n2CCNc1cc(-c2cc(OC(C)C)c(C(=O)O)s2)ncn1` [Example 802, 5-{6-[2-(2-Cyano-7-fluoro-4-methoxy-indol-1-yl)-ethylamino]-pyrimidin-4-yl}-3-isopropoxy-thiophene-2-carboxylic acid]: the IC50 against PTGER2 (EP2) (setting [3]) amounted to 7 nM; against PTRGER4 (EP4) (setting [4]), 1 nM.

As to `CCOc1cc(-c2cc(NCCn3c(C#N)cc4c(OC)ccc(F)c43)ncn2)ccc1-c1nnn[nH]1` [Example 803, 1-(2-{6-[3-Ethoxy-4-(1H-tetrazol-5-yl)-phenyl]-pyrimidin-4-ylamino}-ethyl)-7-fluoro-4-methoxy-1H-indole-2-carbonitrile], the figures for the IC50 at PTGER2 (EP2) (setting [3]) and against PTRGER4 (EP4) (setting [4]) were 10 nM and 4 nM, respectively.

Regarding `COc1ccc(F)c2c1cc(C#N)n2CCNc1cc(-c2cc(C(F)(F)F)c(C(=O)O)s2)ncn1` [Example 804, 5-{6-[2-(2-Cyano-7-fluoro-4-methoxy-indol-1-yl)-ethylamino]-pyrimidin-4-yl}-3-trifluoromethyl-thiophene-2-carboxylic acid], the IC50 at PTGER2 (EP2) (setting [3]) worked out at 3 nM; at PTRGER4 (EP4) (setting [4]), 2 nM.

Consider `CCOc1cc(-c2cc(NCCn3c(C#N)cc4c(OC)ccc(F)c43)ncn2)sc1C(=O)O` [Example 805, 5-{6-[2-(2-cyano-7-fluoro-4-methoxy-indol-1-yl)-ethylamino]-pyrimidin-4-yl}-3-ethoxy-thiophene-2-carboxylic acid], for which the figures for the IC50 on PTGER2 (EP2) (setting [3]) and against PTRGER4 (EP4) (setting [4]) were 4 nM and 5 nM, respectively.

As for `COc1ccc(F)c2c1cc(C#N)n2CCNc1cc(-c2cc(F)c(C(=O)O)s2)ncn1` [Example 806, 5-{6-[2-(2-Cyano-7-fluoro-4-methoxy-indol-1-yl)-ethylamino]-pyrimidin-4-yl}-3-fluoro-thiophene-2-carboxylic acid], the IC50 against PTGER2 (EP2) (setting [3]) amounted to 7 nM; at PTRGER4 (EP4) (setting [4]), 10 nM.

As for `CCOc1cc(-c2cc(NCCn3c(C#N)cc4c(OC)ccc(F)c43)ncn2)ccc1C(=O)O` [Example 807, 4-{6-[2-(2-Cyano-7-fluoro-4-methoxy-indol-1-yl)-ethylamino]-pyrimidin-4-yl}-2-ethoxy-benzoic acid], the values for the IC50 against PTGER2 (EP2) (setting [3]) and against PTRGER4 (EP4) (setting [4]) were 32 nM and 55 nM, respectively.

For `CCOc1cc(-c2cc(NCCn3c(C#N)cc4c(OC)ccc(F)c43)ncn2)ccc1OCC(=O)O` [Example 808, (4-{6-[2-(2-Cyano-7-fluoro-4-methoxy-indol-1-yl)-ethylamino]-pyrimidin-4-yl}-2-ethoxy-phenoxy)-acetic acid], the IC50 against PTGER2 (EP2) (setting [3]) came to 7 nM; on PTRGER4 (EP4) (setting [4]) it was 4 nM.

As for `CCOc1cc(-c2cc(NCCn3c(C#N)cc4c(OC)ccc(F)c43)ncn2)sc1C(=O)NS(C)(=O)=O` [Example 809, N-(5-{6-[2-(2-Cyano-7-fluoro-4-methoxy-indol-1-yl)-ethylamino]-pyrimidin-4-yl}-3-ethoxy-thiophene-2-carbonyl)-methanesulfonamide], the IC50 on PTGER2 (EP2) (setting [3]) was determined as 3 nM; against PTRGER4 (EP4) (setting [4]), 6 nM.

`CCOc1cc(-c2cc(NCCn3c(C)cc4c(OC)ccc(F)c43)ncn2)ccc1OCC(=O)O` [Example 810, (2-Ethoxy-4-{6-[2-(7-fluoro-4-methoxy-2-methyl-indol-1-yl)-ethylamino]-pyrimidin-4-yl}-phenoxy)-acetic acid]: the figures for the IC50 at PTGER2 (EP2) (setting [3]) and against PTRGER4 (EP4) (setting [4]) were 9 nM and 28 nM, respectively.

Turning to `CCOc1cc(-c2cc(NCCn3c(C)cc4c(OC)ccc(F)c43)ncn2)ccc1NCC(=O)O` [Example 811, (2-Ethoxy-4-{6-[2-(7-fluoro-4-methoxy-2-methyl-indol-1-yl)-ethylamino]-pyrimidin-4-yl}-phenylamino)-acetic acid], the IC50 at PTGER2 (EP2) (setting [3]) came to 3 nM; against PTRGER4 (EP4) (setting [4]) it was 20 nM.

Regarding `CCOc1cc(-c2cc(NCCn3c(C)cc4c(F)ccc(C)c43)ncn2)ccc1C(=O)O` [Example 812, 2-Ethoxy-4-{6-[2-(4-fluoro-2,7-dimethyl-indol-1-yl)-ethylamino]-pyrimidin-4-yl}-benzoic acid], the IC50 against PTGER2 (EP2) (setting [3]) is 2 nM; on PTRGER4 (EP4) (setting [4]) it was 976 nM.

Take `CCOc1cc(-c2cc(NCCn3c(C#N)cc4c(OC)cccc43)ncn2)sc1C(=O)O` [Example 813, 5-{6-[2-(2-Cyano-4-methoxy-indol-1-yl)-ethylamino]-pyrimidin-4-yl}-3-ethoxy-thiophene-2-carboxylic acid]: the IC50 is 2 nM against PTGER2 (EP2) (setting [3]) and 3 nM against PTRGER4 (EP4) (setting [4]).

Consider `CCOc1cc(-c2cc(NCCn3c(C#N)cc4c(OC)ccc(F)c43)ncn2)sc1C(=O)NS(=O)(=O)c1ccccc1` [Example 814, N-(5-{6-[2-(2-Cyano-7-fluoro-4-methoxy-indol-1-yl)-ethylamino]-pyrimidin-4-yl}-3-ethoxy-thiophene-2-carbonyl)-benzenesulfonamide], for which the values for the IC50 on PTGER2 (EP2) (setting [3]) and on PTRGER4 (EP4) (setting [4]) were 7 nM and 2 nM, respectively.

With `CCOc1cc(-c2cc(NCCn3c(C#N)cc4c(OC)ccc(F)c43)ncn2)sc1C(=O)NS(=O)(=O)C(C)C` [Example 815, Propane-2-sulfonic acid (5-{6-[2-(2-cyano-7-fluoro-4-methoxy-indol-1-yl)-ethylamino]-pyrimidin-4-yl}-3-ethoxy-thiophene-2-carbonyl)-amide], the IC50 at PTGER2 (EP2) (setting [3]) stood at 8 nM; against PTRGER4 (EP4) (setting [4]), 7 nM.

Consider `CCOc1cc(-c2cc(NCCn3c(C#N)cc4c(OC)ccc(F)c43)ncn2)sc1C(=O)NS(=O)(=O)CC` [Example 817, Ethanesulfonic acid (5-{6-[2-(2-cyano-7-fluoro-4-methoxy-indol-1-yl)-ethylamino]-pyrimidin-4-yl}-3-ethoxy-thiophene-2-carbonyl)-amide], for which the IC50 turned out to be 4 nM against PTGER2 (EP2) (setting [3]) and 5 nM at PTRGER4 (EP4) (setting [4]).

Consider `COc1cc(-c2cc(NCCn3c(C#N)cc4c(OC)ccc(F)c43)ncn2)ccc1-c1c[nH]cn1` [Example 818, 7-Fluoro-1-(2-{6-[4-(1H-imidazol-4-yl)-3-methoxy-phenyl]-pyrimidin-4-ylamino}-ethyl)-4-methoxy-1H-indole-2-carbonitrile], for which the IC50 against PTGER2 (EP2) (setting [3]) amounted to 2 nM; on PTRGER4 (EP4) (setting [4]), 1 nM.

As to `COc1ccc(F)c2c1cc(C#N)n2CCNc1cc(-c2ccc(-c3nc[nH]c3C)cc2)ncn1` [Example 819, 7-Fluoro-4-methoxy-1-(2-{6-[4-(5-methyl-1H-imidazol-4-yl)-phenyl]-pyrimidin-4-ylamino}-ethyl)-1H-indole-2-carbonitrile], the IC50 came to 7 nM at PTGER2 (EP2) (setting [3]) and 2 nM against PTRGER4 (EP4) (setting [4]).
